Counter-ions that a name gives are not always drawn. Like-named read-outs stand apart in the source and are kept apart here. Blank lines part the entries; values can stand above or below the compound they belong to.
How the values were obtained:
[1] = biological target: T1, dopaminergic D2 receptors (Rattus norvegicus, UniProt P61169); assay: Affinity for the D2 receptors, displacement of [3H]YM-09151-2; type: binding; details: rat striatum, [3H]YM-09151-2 displacement, mean of at least 3 experiments
T1 construct: For these experiments, rat striatum is used; from tissue; host or cells: rat striatum homogenate
Procedure: Measurement of the affinity of the compounds of the invention for the D2 receptors
For these experiments, rat striatum is used. After thawing the brain in Tris-HCl buffer (50 mmol, pH=7.4) at 25° C., the striatum is removed and homogenized in 40 volumes of buffer maintained at 4° C. The homogenate is centrifuged at 20 000×g for 10 minutes, and the centrifugation pellet is suspended in the same volume of buffer and recentrifuged. The final pellet is suspended in cold Tris-HCl reaction buffer at 25° C. containing 120 mmol of NaCl and 5 mmol of KCl. The final concentration of tissue in the incubation medium is 2 mg/tube. […] The nonspecific binding is defined by using […] of (+)-butaclamol. The reaction tubes are incubated at 23° C. for 60 minutes and their content is then rapidly filtered through Whatman GF/B filters, and the tubes are rinsed twice with 5 ml of Tris-HCl buffer at 25° C. The radioactivity collected on the filter is analyzed by liquid scintillation, by adding 4 ml of scintillant liquid (Emulsifier Safe, Packard). All the experiments are performed in triplicate.

5-HT1A receptors [2] = biological target: T2, 5-HT1A receptors (Homo sapiens, UniProt P08908); assay: Efficacy: stimulation of [35S]GTPγS binding in a cell membrane preparation; type: biochemical
T2 construct: Gibco Biocult; Laboratory, Paisley UK; host or cells: unspecified cells; membrane preparation
T2 sequence (P08908 1-422): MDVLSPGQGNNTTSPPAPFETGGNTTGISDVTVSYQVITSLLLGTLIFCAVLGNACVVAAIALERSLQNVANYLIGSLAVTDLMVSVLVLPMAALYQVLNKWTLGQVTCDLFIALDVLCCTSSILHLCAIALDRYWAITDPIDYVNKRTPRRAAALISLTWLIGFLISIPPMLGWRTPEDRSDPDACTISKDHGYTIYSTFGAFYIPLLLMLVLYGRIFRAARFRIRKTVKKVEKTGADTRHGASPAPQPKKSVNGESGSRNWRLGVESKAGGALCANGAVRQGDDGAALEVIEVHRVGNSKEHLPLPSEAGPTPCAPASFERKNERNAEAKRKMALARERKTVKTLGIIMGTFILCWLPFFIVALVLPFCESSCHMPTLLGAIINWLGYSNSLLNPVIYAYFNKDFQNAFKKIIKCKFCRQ
Procedure: Measurement of the Efficacy of the Compounds of the Invention
The cells (Gibco Biocult. Laboratory, Paisley UK) are collected in phosphate buffer (pH=7.4) and centrifuged at 48 000 g for 20 minutes. The centrifugation pellet is homogenized in Hepes (20 mmol, pH=7.4) containing EDTA (10 mmol) and recentrifuged at 48 000×g for 10 minutes. The centrifugation pellet is washed twice in Hepes (10 mmol, pH=7.4) containing EDTA (0.1 mmol). The pellet is stored at −80° C. in portions of 600 to 750 μg of protein. […] The incubation medium contains 0.4 ml of membrane preparation and 0.05 ml of test compound. After incubation for 30 minutes at 25° C., 0.05 ml of [^35S]GTPγS (500 picomol), ([^35S]GTPγS (1100 Ci/mmol), Amersham, Les Ulis France), is added and the mixture incubated for 30 minutes. The reactions are quenched by addition of 3 ml of ice-cold Hepes (20 mmol) containing 3 mmol of MgCl2 and rapid filtration through Whatman GF/B filters. The tubes are rinsed 3 times with 5 ml of Hepes buffer at 25° C. The radioactivity collected on the filter is analyzed by liquid scintillation by adding 4 ml of scintillant liquid (Emulsifier Safe, Packard). […] All the experiments are performed in triplicate.

5-HT1A receptors [3] = biological target: T3, 5-HT1A receptors (Rattus norvegicus, UniProt P19327); assay: Affinity for the 5-HT1A receptors, displacement of [3H]8-OH-DPAT; type: binding; details: for Selectivity 5-HT1A/D2: ratio of 5-HT1A to D2 affinity
T3 construct: For these experiments, rat cerebral cortices are used; from tissue; host or cells: rat cerebral cortex homogenate
T3 sequence (P19327 1-422): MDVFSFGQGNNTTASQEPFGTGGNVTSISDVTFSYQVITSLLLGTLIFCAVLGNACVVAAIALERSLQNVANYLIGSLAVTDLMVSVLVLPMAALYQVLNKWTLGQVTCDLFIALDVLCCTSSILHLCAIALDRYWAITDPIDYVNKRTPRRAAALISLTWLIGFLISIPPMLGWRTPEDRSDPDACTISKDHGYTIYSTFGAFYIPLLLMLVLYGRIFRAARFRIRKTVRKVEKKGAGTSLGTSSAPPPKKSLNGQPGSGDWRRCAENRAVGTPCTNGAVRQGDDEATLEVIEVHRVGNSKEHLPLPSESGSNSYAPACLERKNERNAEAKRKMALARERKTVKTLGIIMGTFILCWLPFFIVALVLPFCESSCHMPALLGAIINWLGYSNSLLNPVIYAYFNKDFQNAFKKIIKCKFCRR
Procedure: Measurement of the affinity of the compounds in the invention for the 5-HT1A receptors
For these experiments, rat cerebral cortices are used. After thawing the brain in Tris-HCl buffer (50 mmol, pH=7.4) at 25° C., the cerebral cortex is removed and homogenized in 20 volumes of buffer maintained at 4° C. The homogenate is centrifuged at 39 000×g for 10 minutes, and the centrifugation pellet is suspended in the same volume of buffer and recentrifuged. After resuspending under the same conditions, the homogenate is incubated for 10 minutes at 37° C. and then recentrifuged. The final pellet is suspended in cold Tris-HCl reaction buffer (50 mmol) at 25° C. containing […] of pargyline, 4 mmol of CaCl2 and 0.10% of ascorbic acid. The final concentration of tissue in the incubation medium is 10 mg/tube.
The nonspecific binding is defined by using […] of serotonin. The reaction tubes are incubated at 23° C. for 30 minutes and their content is then rapidly filtered under vacuum through Whatman GF/B filters, and the tubes are rinsed with twice 5 ml of tris-HCl buffer at 25° C. The radio-activity collected on the filter is analyzed by liquid scintillation, by adding 4 ml of scintillant liquid (Emulsifier Safe, Packard, Warrenville, USA). All the experiments are performed in triplicate.

[4] = read-out: 5-HT1A pKi (converted)
[5] = [35S]GTPγS binding, maximum stimulation defined with serotonin (10 μmmol), read-out: % stimulation Maximum effect

T1 sequence (P61169 whole entry): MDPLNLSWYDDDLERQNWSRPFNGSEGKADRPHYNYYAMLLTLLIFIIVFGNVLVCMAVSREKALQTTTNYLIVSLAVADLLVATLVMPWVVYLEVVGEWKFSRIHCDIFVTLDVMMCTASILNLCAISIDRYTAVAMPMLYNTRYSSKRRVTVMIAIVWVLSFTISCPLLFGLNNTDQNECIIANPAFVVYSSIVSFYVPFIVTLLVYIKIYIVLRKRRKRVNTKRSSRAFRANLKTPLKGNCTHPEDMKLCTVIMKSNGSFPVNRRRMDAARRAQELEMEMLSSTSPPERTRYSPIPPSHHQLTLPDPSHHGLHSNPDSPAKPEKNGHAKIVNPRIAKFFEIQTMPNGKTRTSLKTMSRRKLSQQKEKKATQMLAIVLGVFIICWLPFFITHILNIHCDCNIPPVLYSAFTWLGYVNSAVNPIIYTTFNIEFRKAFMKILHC

melting point: 203 °C (dec.)
Structure (SMILES): Cc1ccc(CNCC2(F)CCN(C(=O)c3ccc(Cl)c(Cl)c3)CC2)nn1 (as salt: oxalate) [Compound 1-8, (3,4-dichlorophenyl)-(4-fluoro-4-{[(6-methylpyridazin-3-ylmethyl)amino]-methyl}piperidin-1-yl)methanone]

melting point: 157 to 159 °C
Structure (SMILES): O=C(c1ccc(F)c(Cl)c1)N1CCC(F)(CNCc2ccc(CF)cn2)CC1 (as salt: fumarate) [Compound 1-4, (3-chloro-4-fluorophenyl)-(4-fluoro-4-{[(5-fluoromethylpyridin-2-ylmethyl)amino]-methyl}piperidin-1-yl)methanone]

melting point: 225 to 227 °C
Structure (SMILES): O=C(c1ccc(F)c(Cl)c1)N1CCC(F)(CNCc2ccc(O)cn2)CC1 (as salt: fumarate) [Compound 1-1, (3-chloro-4-fluorophenyl)(4-fluoro-4-{[(5-hydroxypyridin-2-ylmethyl)amino]methyl}-piperidin-1-yl)methanone]

melting point: 160 to 162 °C
Structure (SMILES): O=C(c1ccc(F)c(Cl)c1)N1CCC(F)(CNCc2ccc(Cl)cn2)CC1 (as salt: fumarate) [Compound 1-3, (3-chloro-4-fluorophenyl)-(4-fluoro-4-{[(5-chloropyridin-2-ylmethyl)amino]methyl}piperidin-1-yl)methanone]

Selectivity 5-HT1A/D2 (5-HT1A receptors [3]): >1000
Ki (5-HT1A receptors [3]; [4]): 5.01 nM
Ki ([1]; read-out: D2 pKi (converted)): > 10000 nM
Emax (5-HT1A receptors [2]; [5]): 90%
Structure (SMILES): Cc1ccc(CNCC2(F)CCN(C(=O)c3ccc(F)c(Cl)c3)CC2)nn1 [Compound 1-7, (3-chloro-4-fluorophenyl)-(4-fluoro-4-{[(6-methylpyridazin-3-ylmethyl)amino]-methyl}piperidin-1-yl)methanone]

melting point: 205 °C (dec.)
Structure (SMILES): Cc1ccc(CNCC2(F)CCN(C(=O)c3ccc(F)c(Cl)c3)CC2)nn1 (as salt: hydrochloride) [Compound 1-7, (3-chloro-4-fluorophenyl)-(4-fluoro-4-{[(6-methylpyridazin-3-ylmethyl)amino]-methyl}piperidin-1-yl)methanone]

melting point: 150 °C
Structure (SMILES): Cc1ccc(CNCC2(F)CCN(C(=O)c3ccc(Cl)c(F)c3)CC2)nc1 (as salt: fumarate) [Compound 1-12, (3-fluoro-4-chlorophenyl)-(4-fluoro-4-{[(5-methylpyridin-2-ylmethyl)amino]methyl}piperidin-1-yl)methanone]

melting point: 170 to 172 °C
Structure (SMILES): N#Cc1ccc(CNCC2(F)CCN(C(=O)c3ccc(F)c(Cl)c3)CC2)nc1 (as salt: fumarate) [Compound 1-2, (3-chloro-4-fluorophenyl)-(4-fluoro-4-{[(5-cyanopyridin-2-ylmethyl)amino]methyl}-piperidin-1-yl)methanone]

melting point: 158 °C
Structure (SMILES): Cc1ccc(CNCC2(F)CCN(C(=O)c3ccc(F)c(F)c3)CC2)nc1 (as salt: fumarate) [Compound 1-11, (3,4-difluorophenyl)-(4-fluoro-4-{[(5-methylpyridin-2-ylmethyl)amino]methyl}piperidin-1-yl)methanone]

Further lines, the compound ahead of its results:

Structure (SMILES): CCCN(CCC)C1CCc2cccc(O)c2C1 (stereo not drawn) [Compound 8-OH-DPAT, 8-hydroxy-2-di-n-propylaminotetralin, reference compound]
Ki ([1]; D2 pKi): 631 nM
Emax (5-HT1A receptors [2]; read-out: % stimulation Maximum effect, [35S]GTPγS binding, maximum stimulation defined with serotonin (10 μmmol)): 41%

Structure (SMILES): Cc1ccc(CNCC2(Cl)CCN(C(=O)c3ccc(F)c(Cl)c3)CC2)nc1 [Compound 1-9, (3-chloro-4-fluorophenyl)-(4-chloro-4-{[(5-methylpyridin-2-ylmethyl)amino]-methyl}piperidin-1-yl)methanone]
Selectivity 5-HT1A/D2 (5-HT1A receptors [3]): >1000
Ki (5-HT1A receptors [3]; [4]): 0.794 nM
Ki ([1]; read-out: D2 pKi (converted)): > 10000 nM
Emax (5-HT1A receptors [2]; [5]): 100%

Structure (SMILES): Cc1ccc(CNCC2(Cl)CCN(C(=O)c3ccc(F)c(Cl)c3)CC2)nc1 (as salt: hydrochloride) [Compound 1-9, (3-chloro-4-fluorophenyl)-(4-chloro-4-{[(5-methylpyridin-2-ylmethyl)amino]-methyl}piperidin-1-yl)methanone]
melting point: 190 °C (dec.)

Structure (SMILES): CCCN(CCC)C1CCc2cccc(O)c2C1 (single isomer, unassigned; (+)) [(+)-8-OH-DPAT, reference compound]
Ki ([1]; D2 pKi): 794 nM
% stimulation Maximum effect (5-HT1A receptors [2]; [35S]GTPγS binding, maximum stimulation defined with serotonin (10 μmmol)): 59%

Structure (SMILES): Cc1ccc(CNCC2(F)CCN(C(=O)c3ccc(F)c(Cl)c3)CC2)nc1 [Compound I-66, (3-chloro-4-fluorophenyl)(4-fluoro-4-{[(5-methylpyridin-2-ylmethyl)-amino]methyl}piperidin-1-yl)methanone, reference compound]
Ki (5-HT1A receptors [3]): 0.794 nM
Emax (5-HT1A receptors [2]; [5]): 75%

Structure (SMILES): O=C1CC2(CCCC2)CC(=O)N1CCCCN1CCN(c2ncccn2)CC1 [buspirone]
Emax (5-HT1A receptors [2]; [5]): 22%

Structure (SMILES): Cc1cnc(CNCC2(F)CCN(C(=O)c3ccc(Cl)c(Cl)c3)CC2)nc1 (as salt: fumarate) [Compound 1-6, (3,4-dichlorophenyl)-(4-fluoro-4-{[(5-methylpyrimidin-2-ylmethyl)amino]-methyl}piperidin-1-yl)methanone]
melting point: 161 °C

Structure (SMILES): Cc1ccc(CNCC2(F)CCN(C(=O)c3cccc(C(F)(F)F)c3)CC2)nc1 (as salt: hydrochloride) [Compound 1-14, (3-trifluoromethylphenyl)-(4-fluoro-4-{[(5-methylpyridin-2-ylmethyl)amino]methyl}piperidin-1-yl)methanone]
melting point: 172 °C

Structure (SMILES): Cc1ccc(CNCC2(F)CCN(C(=O)c3ccc(F)c(C#N)c3)CC2)nc1 (as salt: fumarate) [Compound 1-13, (3-cyano-4-fluorophenyl)-(4-fluoro-4-{[(5-methylpyridin-2-ylmethyl)amino]methyl}piperidin-1-yl)methanone]
melting point: 175 °C

— patent US7547700B2, “Aryl-[4-halo-4(heteroarylmethylamino)-methyl]-piperidin-1-1yl]-methanone derivatives, methods for production and use thereof as medicaments” (PIERRE Fabre Medicament, priority 2002, dated 2009)
